Measured values taken from patent US20120157492A1, “ANTIBIOTIC DRUG” (priority 2008, published 2012).
Converted amounts (≈) assume the structure as drawn. Like-named read-outs stand apart in the source and are kept apart here.

What was measured:
[1] = system: MRSA-CIP (R): Clinical isolate of MRSA-ciprofloxacin resistant strain; test: MIC by broth microdilution, ciprofloxacin-resistant MRSA; format: cell-based, S. aureus; settings: Staphylococcus aureus
Procedure: (§1) Minimum inhibitory concentrations (MICs) were determined by the Broth microdilution method following the guidelines of the Clinical and Laboratory Standards Institute (CLSI). See, e.g., “Methods for Dilution Antimicrobial Susceptibility Tests for Bacterial That Grow Aerobically,” CLSI 2006, Approved standard-7th Ed. M7-A7; and “Performance standards for Antimicrobial Susceptibility Testing,” CLSI 2007, 17th Informational Supplement, M100-S17. Note that since there is no CLSI recommended broth microdilution (BMD) method for N. gonorrhoeae, the BMD method recommended for N. meningitis was used.
(§2) MICs were determined using the broth microdilution method.

[2] = system: MRSA-CIP (S): Clinical isolate of MRSA-ciprofloxacin sensitive strain; test: MIC by broth microdilution, ciprofloxacin-sensitive MRSA; format: cell-based; settings: Staphylococcus aureus
Procedure: as §1, §2

[3] = system: S. pneumo-Levo (R): Clinical isolate of S. pnemoniae Levofloxacin resistant strains; test: MIC by broth microdilution, levofloxacin-resistant S. pneumoniae; format: cell-based; settings: Streptococcus pneumoniae
Procedure: as §1, §2

[4] = system: S. pneumo-Levo (S): Clinical isolate of S. pnemoniae Levofloxacin sensitive strains; test: MIC by broth microdilution, levofloxacin-sensitive S. pneumoniae; format: cell-based; settings: Streptococcus pneumoniae
Procedure: as §1, §2

[5] = system: 8 ATCC reference strains and 10 clinical strains (E. coli, P. aeruginosa, S. aureus, E. faecalis, E. faecium, S. pneumoniae, H. influenzae, N. gonorrhoeae); test: Inhibition of bacteria, MIC by broth microdilution (CLSI); format: cell-based
Procedure: Minimum inhibitory concentrations (MICs) were determined by the Broth microdilution method following the guidelines of the Clinical and Laboratory Standards Institute (CLSI). See, e.g., “Methods for Dilution Antimicrobial Susceptibility Tests for Bacterial That Grow Aerobically,” CLSI 2006, Approved standard-7th Ed. M7-A7; and “Performance standards for Antimicrobial Susceptibility Testing,” CLSI 2007, 17th Informational Supplement, M100-S17. Note that since there is no CLSI recommended broth microdilution (BMD) method for N. gonorrhoeae, the BMD method recommended for N. meningitis was used. Each of the three compounds was dissolved in water before sterile filtration to prepare stock solutions. The stock solutions were stored at −20° C. in aliquots. […] The 2× stock was dispensed at 50 μl per well into the 96-well microtitre plates. The plates were either used fresh or stored at −80° C. before use. To conduct the test, an aliquot of the frozen bacterial isolates was subcultured onto sheep blood agar for all species except that H. influenzae and N. gonorrhoeae were subculuted on chocolate plates. All plate media were purchased from BBL (Becton Dickinson Microbiology System, Cockeysville, Md.). The day before the antimicrobial susceptibility testing, all bacteria were sub-cultured again to obtain fresh starting cultures. […]

[6] = Pharmacokinetic study in rats (IV and PO); format: in vivo; settings: male, Sprague-Dawley, plasma, rat; for half-life: read-out: terminal half-life (t1/2) (converted); for bioavailability: oral, read-out: oral bioavailability (% F)
Procedure: Each of the malic acid salts of Compound 1 and Compound 1′ was dissolved in 0.7% lactic acid and 3% dextrose in water at a pH about 4.5 and 2.5% L-glutamic acid in water at a pH about 5.4 to provide solutions used in this pharmacokinetic study. Male Sprague-Dawley rats (BioLASCO Taiwan Co., Ltd., Taipei, Taiwan) weighing 300-400 g were surgically implanted with polyethylene (PE-50) cannula in the jugular vein for blood sampling while under pentobarbital anesthesia the day before the in-life phase. The rats were treated with a Compound 1 or Compound 1′ solution via intravenous injection (IV) at a dose of 2.5 mg/kg (N=3) or by oral gavage (PO) at a dose of 5 mg/kg (N=4). Dose levels were based on the free base form of the compounds. For PO study, the rats were fasted overnight with water ad libitum, and then dosed the next day. Serial blood samples were collected from animals pre-dose, at 5, 10 (IV only), 15, and 30 min, and at 1, 2, 4, 6, 8, 12, and 24 hours post-dose and heparinized plasma was recovered after centrifugation. Concentrations of the test compound in blood plasma were determined by liquid chromatography-mass spectrometry analysis (MDS SCIEX, API 3000, Applied Biosystems, CA, USA) with a lower limit of quantitation of 2 ng/mL. Standard pharmacokinetic parameters were assessed by non-compartmental analysis using WinNonlin (Version 4.0, Pharsight, CA, USA). The area under the concentration vs. time curve from the time of dosing to infinity (AUC(0-inf)) was calculated by the linear trapezoidal rule. Oral bioavailability (% F) was calculated from the dose-normalized ratio of plasma exposure following oral administration to the intravenous plasma exposure in the rats by the following equation: % F=(AUCpo/AUCiv)×(Div/Dpo)×100% where D is the dose and AUC is the area-under-the-plasma-concentration-time-curve from 0 to infinity.

MIC50 [1] [mg/L]	MIC90 [1] [mg/L]	MIC50 [2] [mg/L]	MIC90 [2] [mg/L]	MIC50 [3] [mg/L]	MIC90 [3] [mg/L]	MIC50 [4] [mg/L]	MIC90 [4] [mg/L]	AUC(0-inf) ([6]; IV injection, 2.5 mg/kg) [µg·h/mL]	half-life ([6]; IV injection, 2.5 mg/kg) [h]	AUC(0-inf) ([6]; PO, 5 mg/kg) [µg·h/mL]	Cmax ([6]; PO, 5 mg/kg, read-out: maximum of concentration (Cmax)) [µg/mL]	half-life ([6]; PO, 5 mg/kg) [h]	Tmax ([6]; PO, 5 mg/kg, read-out: time at the maximum of concentration (Tmax)) [h]	bioavailability ([6]; 5 mg/kg) [%]	SMILES	MICs against the tested bacterial strains, compared with ciprofloxacin [5]	efficacy in inhibiting bacteria compared to malic acid salt of Compound 1′ [5]
1 (≈ 2.69 µM)	1 (≈ 2.69 µM)	0.03 (≈ 0.0808 µM)	0.06 (≈ 0.162 µM)	0.25 (≈ 0.673 µM)	1 (≈ 2.69 µM)	0.03 (≈ 0.0808 µM)	0.06 (≈ 0.162 µM)	1.53 ± 0.066	2.47 ± 0.801	1.4 ± 0.464	0.622 ± 0.17	3.58 ± 1.7	0.25	~45.9	COc1c(N2C[C@H](C)C[C@H](N)C2)ccc2c(=O)c(C(=O)O)cn(C3CC3)c12 [Compound 1, 7-((3S,5R)-3-amino-5-methylpiperidin-1-yl)-1-cyclopropyl-8-methoxy-4-oxo-1,4-dihydroquinoline-3-carboxylic acid]	low MICs comparable with, or even lower than, that of ciprofloxacin	more efficacious in inhibiting in some S. aureus, H. influenzae, and P. aeruginosa stains
1 (≈ 2.69 µM)	2 (≈ 5.38 µM)	0.03 (≈ 0.0808 µM)	0.06 (≈ 0.162 µM)	0.5 (≈ 1.35 µM)	2 (≈ 5.38 µM)	0.06 (≈ 0.162 µM)	0.06 (≈ 0.162 µM)	–	–	–	–	–	–	13.2 ± 3.3	COc1c(N2C[C@@H](C)C[C@H](N)C2)ccc2c(=O)c(C(=O)O)cn(C3CC3)c12 [Compound 1′, reference compound]	–	–
–	–	–	–	> 128	–	16 (≈ 44.3 µM)	–	–	–	–	–	–	–	–	C[C@H]1COc2c(N3CCN(C)CC3)c(F)cc3c(=O)c(C(=O)O)cn1c23 [Levo, Levofloxacin]	–	–
